# Article PMC5534107, “Sensitization of ASIC3 by proteinase-activated receptor 2 signaling contributes to acidosis-induced nociception” (Journal of Neuroinflammation, 2017)
# How the values were obtained:
# [1] = system: ASIC3 currents in CHO cells co-expressing ASIC3 and PAR2; assay: Whole-cell patch clamp of proton-gated currents (I pH 6.6) in CHO cells co-expressing ASIC3 and PAR2; format: cell-based, Chinese hamster
# Procedure: (§1) ASIC3, ASIC1a, ASIC1b, ASIC2b, and PAR2 complementary DNAs (cDNAs) were used for heterologous expression in CHO cells as described previously (Wang et al., 2013). In brief, CHO cells were cultured at 37 °C in a humidified atmosphere of 5% CO2 and […] and passaged twice a week. Transient transfection of CHO cells was performed using HilyMax liposome transfection reagent (Dojindo Laboratories). CHO cells were maintained in F-12 Nutrient Mixture (added 1.176 g of NaHCO3/L medium) supplemented with 10% fetal bovine serum and 1% gluta-MAXTM-1 (100×; Invitrogen). When ASIC3 and PAR2 cDNAs were co-transfected, the ratio was kept at 1:1. All plasmids used contained, in addition to the desired ASIC3 cDNA, the coding sequence for enhanced green fluorescent protein to aid identification of transfected cells. Electrophysiological measurements were performed 24–48 h after transfection.
# (§2) Whole-cell patch clamp and voltage clamp recordings were carried out at room temperature (22–25 °C) using a MultiClamp-700B amplifier and Digidata-1440A A/D converter (Axon Instruments, CA, USA). Recording pipettes were pulled using a Sutter P-97 puller (Sutter Instruments, CA, USA). The micropipettes were filled with internal solution containing (mM) KCl 140, MgCl2 2.5, HEPES 10, EGTA 11, and ATP 5; its pH was adjusted to 7.2 with KOH, and osmolarity was adjusted to 310 mOsm/L with sucrose. Cells were bathed in an external solution containing (mM) NaCl 150, KCl 5, CaCl2 2.5, MgCl2 2, HEPES 10, D-glucose 10; its osmolarity was adjusted to 330 mOsm/L with sucrose and its pH to 7.4. The resistance of the recording pipette was in the range of 3–6 MΩ. A small patch of membrane underneath the tip of the pipette was aspirated to form a giga seal, and then, a negative pressure was applied to rupture it, thus establishing a whole-cell configuration. The series resistance was compensated for by 70–80%. The adjustment of capacitance compensation was also done before recording the membrane currents. The membrane voltage was maintained at −60 mV in all voltage clamp experiments unless otherwise specified. Current clamp recordings were obtained by switching to current clamp mode after a stable whole-cell configuration was formed in voltage clamp mode. Only cells with a stable resting membrane potential (more negative than −50 mV) were used in the study. Signals were sampled at 10 to 50 kHz and filtered at 2 to 10 kHz, and the data were stored in compatible PC computer for off-online analysis using the pCLAMP 10 acquisition software (Axon Instruments, CA, USA).
# Drugs purchased from Sigma and used in the experiments include hydrochloric acid, 2-furoyl-LIGRLO-NH2 (a PAR2-activating peptide (PAR2-AP)), trypsin, FSLLRY-NH2, APETx2, and capsazepine. Different pH values were configured with hydrochloric acid and external solution. All drugs were dissolved daily in the external solution just before use and held in a linear array of fused silica tubes (o.d./i.d. = 500 μm/200 μm) connected to a series of independent reservoirs. The application pipette tips were positioned ∼30 μm away from the recorded neurons. The application of each drug was driven by gravity and controlled by the corresponding valve, and rapid solution exchange could be achieved within about 100 ms by shifting the tubes horizontally with a PC-controlled micromanipulator. Cells were constantly bathed in normal external solution flowing from one tube connected to a larger reservoir between drug applications. In some experiments where GDP-β-S (Sigma), U-73122(Sigma), and GF109203X (RBI) were applied for intracellular dialysis through recording patch pipettes, they were dissolved in the internal solution before use. To ensure that the cell interior was perfused with the dialysis drug, there was at least a 30-min interval between the establishment of whole-cell access and the current measurement. […]
# [2] = system: ASIC3-like currents in rat DRG neurons; assay: Voltage clamp of proton-evoked ASIC3-like currents in acutely isolated rat DRG neurons; format: cell-based
# Text: (§3) The experimental protocol was approved by the animal research ethics committee of Hubei University of Science and Technology (No. 2016–67). All procedures conformed to international guidelines on the ethical use of animals, and every effort was made to minimize the number of animals used and their sufferings. Five- to 6-week-old Sprague–Dawley male rats were anesthetized with 7% chloral hydrate and then decapitated. The DRGs were taken out and transferred immediately into Dulbecco’s modified Eagle’s medium (DMEM, Sigma) at pH 7.4. After the removal of the surrounding connective tissues, the DRGs were minced with fine spring scissors and the ganglion fragments were placed in a flask containing 5 ml of DMEM in which trypsin (type II-S, Sigma) 0.5 mg/ml, collagenase (type I-A, Sigma) 1.0 mg/ml, and DNase (type IV, Sigma) 0.1 mg/ml had been dissolved and incubated at 35 °C in a shaking water bath for 25–30 min. Soybean trypsin inhibitor (type II-S, Sigma) 1.25 mg/ml was then added to stop trypsin digestion. The incubating solution was then replaced by external solution. Dissociated neurons were placed into a 35-mm Petri dish and kept for at least 1 h in normal external solution before the start of electrophysiological experiments. After plating of the DRG neurons, the neurons were used for experiments within 24 h. The neurons selected for electrophysiological experiment were 15–35 μm in diameter.
# as §2, with “The membrane voltage was maintained at −60 mV in all voltage clamp experiments unless otherwise specified. Current clamp recordings were obtained by switching to current clamp mode after a stable whole-cell configuration was formed in voltage clamp mode. Only cells with a stable resting membrane potential (more negative than −50 mV) were used in the study. Signals were sampled at 10 to 50 kHz and filtered at 2 to 10 kHz, and the data were stored in compatible PC computer for off-online analysis using the pCLAMP 10 acquisition software (Axon Instruments, CA, USA).” left out
# (§4) Drugs purchased from Sigma and used in the experiments include hydrochloric acid, 2-furoyl-LIGRLO-NH2 (a PAR2-activating peptide (PAR2-AP)), trypsin, FSLLRY-NH2, APETx2, and capsazepine. […] The application pipette tips were positioned ∼30 μm away from the recorded neurons. […]
# [3] = system: rat DRG neurons; assay: Current clamp of acidosis-evoked action potentials (spikes) in rat DRG neurons; format: cell-based; conditions: APETx2 2 μM; pH 6.6 for 5 s; capsazepine 10 μM
# Text: as §3, with “Dissociated neurons were placed into a 35-mm Petri dish and kept for at least 1 h in normal external solution before the start of electrophysiological experiments. After plating of the DRG neurons, the neurons were used for experiments within 24 h. The neurons selected for electrophysiological experiment were 15–35 μm in diameter.” left out
# as §4
# [4] = system: rats; assay: Nociceptive behavior (flinches) induced by intraplantar acetic acid in rats; format: in vivo, rat; conditions: n = 10
# Procedure: Rats were placed in a 30 × 30 × 30 cm Plexiglas chamber and allowed to habituate for at least 30 min before nociceptive behavior experiments. A blind experiment was carried out. Separate groups of rats were coded and pretreated with 20 μl capsazepine (100 μM) together with vehicle and different dosages of PAR2-AP, FSLLRY-NH2, or APETx2 in the ipsilateral hind paw before injection of acetic acid. […] And nociceptive behavior (that is, number of flinches) was counted over a 5-min period starting immediately after the injection.
# We finally ascertain whether PAR2-AP facilitates pain-related behaviors through interacting with ASIC3 in vivo. Acetic acid (0.6%) was injected into the right hind paws of rats and measured the number of flinches that the animals spent licking and/or lifting the injected paw. Intraplantar injection of acetic acid elicits an intense flinch/shaking response which mainly occurred during 0–5 min after injection of acetic acid. […] However, the low dose (1 μg) of PAR2-AP had no effect on the acidosis-induced nocifensive behaviors (Bonferroni’s post hoc test, P > 0.1, n = 10). In addition, the exacerbating effect of 10 μg PAR2-AP on acidosis-induced nocifensive behaviors was blocked by co-administration of 20 μg FSLLRY-NH2, a selective PAR2 antagonist (Bonferroni’s post hoc test, P < 0.01, compared with 10 μg PAR2-AP alone, n = 10; Fig. 6a).
# [5] = system: ASIC3 currents in CHO cells expressing alone ASIC3, but not expressing PAR2; assay: Whole-cell patch clamp, CHO cells expressing ASIC3 alone (no PAR2); format: cell-based, Chinese hamster; conditions: 10^−5 M; P > 0.1; n = 10
# Procedure: as §1
# Whole-cell patch clamp and voltage clamp recordings were carried out at room temperature (22–25 °C) using a MultiClamp-700B amplifier and Digidata-1440A A/D converter (Axon Instruments, CA, USA). […]
# as §4
molecule,measurement,setting,value
CN(C)CCCn1cc(C2=C(c3c[nH]c4ccccc34)C(=O)NC2=O)c2ccccc21 [GF109203X],PAR2-AP-induced increase of I pH 6.6 with GF109203X in the pipette solution,"[1]; GF109203X 2 μM intracellular dialysis, PAR2-AP 10^−5 M for 1 min, n = 10",3.2 ± 6.0%
O=S(=O)(NCCNC/C=C/c1ccc(Br)cc1)c1cccc2cnccc12 [H-89],PAR2-AP-induced increase of I pH 6.6 with H-89 in the pipette solution,"[1]; H-89 10 μM intracellular dialysis, PAR2-AP 10^−5 M for 1 min, n = 10",15.3 ± 5.8%
COc1ccc2c(c1)CC[C@@H]1[C@@H]2CC[C@]2(C)[C@@H](NCCCCCCN3C(=O)C=CC3=O)CC[C@@H]12 [U-73122],PAR2-AP-induced increase of I pH 6.6 with U-73122 in the pipette solution,"[1]; U-73122 10 μM intracellular dialysis, PAR2-AP 10^−5 M for 1 min, n = 10",6.9 ± 2.8%
APETx2,effect on peak ASIC current (I pH 6.6),[1]; APETx2 500 nM,inhibited the peak ASIC current
same,effect on sustained plateau current (I pH 6.6),[1]; APETx2 500 nM,without affecting the sustained plateau
same,effect on proton-induced ASIC current (I pH 6.6) in DRG neurons,"[2]; APETx2 2 μM, eight DRG neurons, capsazepine 10 μM",completely blocked
same,effect on acidosis-evoked spikes,[3],completely blocked
same,effect on acetic acid-induced nociceptive response,"[4]; APETx2 20 μM, 20 μl intraplantar, P < 0.01",potently blocked
same,effect on increased pain behavior induced by 10 μg PAR2-AP,"[4]; APETx2 20 μM, 20 μl intraplantar, P < 0.01 vs PAR2-AP",potently inhibited
FSLLRY-NH2,change of peak amplitude of I pH 6.6 after pretreatment with FSLLRY-NH2 alone,[1]; 10^−5 M,≤ 5%
same,PAR2-AP-induced increase of ASIC3 currents in cells pretreated with FSLLRY-NH2,"[1]; PAR2-AP 10^−5 M + FSLLRY-NH2 10^−5 M, n = 10, P < 0.01 vs PAR2-AP alone",7.3 ± 7.1%
same,trypsin-induced increase of ASIC3 currents in cells pretreated with FSLLRY-NH2,"[1]; trypsin 10^−5 M + FSLLRY-NH2 10^−5 M, n = 10",8.4 ± 6.2%
same,effect of FSLLRY-NH2 on trypsin potentiation of ASIC currents in DRG neurons,"[2]; FSLLRY-NH2 10^−5 M, trypsin 10^−5 M",inhibited
same,increase of peak amplitude of I pH 6.6 in DRG neurons when PAR2-AP co-treated with FSLLRY-NH2,"[2]; PAR2-AP 10^−5 M + FSLLRY-NH2 10^−5 M, capsazepine 10 μM, n = 9, P < 0.01 vs PAR2-AP alone",9.3 ± 44%
same,effect on exacerbation of acidosis-induced nocifensive behaviors by 10 μg PAR2-AP,"[4]; FSLLRY-NH2 20 μg co-administered, P < 0.01 vs 10 μg PAR2-AP alone",blocked
"trypsin: protease, possible physiological ligand of PAR2; cleaves and activates PAR2",increase of peak amplitude of I pH 6.6 after pretreatment with agonist alone,"[1]; 10^−5 M for 1 min, n = 10",48.7 ± 8.3%
same,effect on I pH 6.6 in ASIC3-transfected CHO cells without PAR2,[5],Neither PAR2-AP nor trypsin had an effect
